Numbered stars: 1 amine (or outer) side, 2 acyl side, 3 side chain; on linkers, the order of the positions; unused ones are H or OH. Square brackets hold non-standard residues; d marks the D form. Side chains are listed from the residue outwards. Peptide text beside a SMILES is read from it. * marks the point of attachment. C18 diacid = O=C(O)CCCCCCCCCCCCCCCCC(=O)*; γGlu = O=C(O)[C@H](CCC(=O)[*:2])N[*:1]; Ac4c = NC1(C(=O)O)CCC1; AEEA = NCCOCCOCC(=O)O; Aib = CC(C)(N)C(=O)O
Target: T1, human GLP-1 receptor (Homo sapiens, UniProt P43220)
T1 construct: expressed in transfected cells; host or cells: BHK cells (parent BHKTS13), clone FCW467-12A/KZ10-1, with CRE luciferase
Assay: GLP-1 receptor potency, CRE luciferase reporter gene assay in BHK cells
Assay type: cell-based
Settings: BHK cells expressing human GLP-1 receptor, read-out: EC50 GLP-1R
Summary of the method: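 Potency as cAMP-driven firefly luciferase signal after 3 h, 37° C exposure to 10-fold dilutions (final 1×10EE-13–1×10EE-6 M). Stable hGLP-1R/CRE-luc BHK clone, 5×10EE3 cells/well, medium containing 2% ovalbumin and 0.2% Pluronic F-68; EC50 (pM) from variable-slope non-linear regression.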

T1 sequence (P43220 24-463): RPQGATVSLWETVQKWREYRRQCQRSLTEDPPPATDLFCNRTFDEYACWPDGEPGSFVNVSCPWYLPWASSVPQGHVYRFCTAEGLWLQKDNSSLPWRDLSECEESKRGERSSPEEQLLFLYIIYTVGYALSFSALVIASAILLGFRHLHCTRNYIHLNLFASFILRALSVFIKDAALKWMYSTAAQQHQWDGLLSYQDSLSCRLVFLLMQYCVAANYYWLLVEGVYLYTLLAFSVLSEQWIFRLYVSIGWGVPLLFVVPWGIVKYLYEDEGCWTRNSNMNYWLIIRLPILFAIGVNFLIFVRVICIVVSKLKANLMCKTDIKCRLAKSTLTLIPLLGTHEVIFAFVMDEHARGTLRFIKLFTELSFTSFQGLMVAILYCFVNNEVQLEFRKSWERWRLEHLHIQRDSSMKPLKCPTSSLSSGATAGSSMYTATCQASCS

| SMILES | EC50 [pM] |
| --- | --- |
| CC(C)C[C@H](NC(=O)[C@H](Cc1ccc(O)cc1)NC(=O)[C@H](CCCCN)NC(=O)[C@H](CO)NC(=O)[C@H](CC(C)C)NC(=O)[C@H](CC(=O)O)NC(=O)[C@H](CO)NC(=O)[C@@H](NC(=O)[C@H](Cc1ccccc1)NC(=O)[C@@H](NC(=O)CNC(=O)[C@H](CCC(N)=O)NC(=O)C(C)(C)NC(=O)[C@@H](N)Cc1c[nH]cn1)[C@@H](C)O)[C@@H](C)O)C(=O)N[C@@H](CC(=O)O)C(=O)N[C@@H](C)C(=O)N[C@@H](CCCNC(=N)N)C(=O)N[C@@H](CCCNC(=N)N)C(=O)N[C@@H](C)C(=O)N[C@@H](CCCNC(=N)N)C(=O)N[C@@H](CCC(=O)O)C(=O)N[C@@H](Cc1ccccc1)C(=O)N[C@H](C(=O)N[C@@H](CCC(N)=O)C(=O)N[C@@H](Cc1c[nH]c2ccccc12)C(=O)N[C@@H](CC(C)C)C(=O)N[C@@H](CC(C)C)C(=O)N[C@@H](CCCCNC(=O)CC[C@H](NC(=O)CC[C@H](NC(=O)COCCOCCNC(=O)COCCOCCNC(=O)CC[C@H](NC(=O)CCCCCCCCCCCCCCCCC(=O)O)C(=O)O)C(=O)O)C(=O)O)C(=O)N[C@H](C(N)=O)[C@@H](C)O)C(C)C [Example 43, N^ε28-[(4S)-4-carboxy-4-[[(4S)-4-carboxy-4-[[2-[2-[2-[[2-[2-[2-[[(4S)-4-carboxy-4-(17-carboxyheptadecanoylamino)butanoyl]amino]ethoxy]ethoxy]acetyl]amino]ethoxy]ethoxy]acetyl]amino]butanoyl]amino]butanoyl]-[Aib2,Leu10,Ala16,Arg20,Glu21,Leu27,Lys28]-Glucagon amide] (H-H[Aib]QGTFTSDLSKYLDARRAREFVQWLLK([γGlu-γGlu-AEEA-AEEA-γGlu-C18 diacid])T-NH2; N-terminus assumed) | 5 |
| CC(C)C[C@H](NC(=O)[C@H](Cc1ccc(O)cc1)NC(=O)[C@H](CCCCN)NC(=O)[C@H](CO)NC(=O)[C@H](CC(C)C)NC(=O)[C@H](CC(=O)O)NC(=O)[C@H](CO)NC(=O)[C@@H](NC(=O)[C@H](Cc1ccccc1)NC(=O)[C@@H](NC(=O)CNC(=O)[C@H](CCC(N)=O)NC(=O)C1(NC(=O)[C@@H](N)Cc2c[nH]cn2)CCC1)[C@@H](C)O)[C@@H](C)O)C(=O)N[C@@H](CCC(=O)O)C(=O)N[C@@H](CO)C(=O)N[C@@H](CCCNC(=N)N)C(=O)N[C@@H](CCCNC(=N)N)C(=O)N[C@@H](C)C(=O)N[C@@H](CCCNC(=N)N)C(=O)N[C@@H](CCC(=O)O)C(=O)N[C@@H](Cc1ccccc1)C(=O)N[C@H](C(=O)N[C@@H](CCC(N)=O)C(=O)N[C@@H](Cc1c[nH]c2ccccc12)C(=O)N[C@@H](CC(C)C)C(=O)N[C@@H](CC(C)C)C(=O)N[C@@H](CCCCNC(=O)CC[C@H](NC(=O)CC[C@H](NC(=O)COCCOCCNC(=O)COCCOCCNC(=O)CC[C@H](NC(=O)CC[C@H](NC(=O)CCCCCCCCCCCCCCCCC(=O)O)C(=O)O)C(=O)O)C(=O)O)C(=O)O)C(=O)N[C@H](C(N)=O)[C@@H](C)O)C(C)C [Example 61, N^ε28-[(4S)-4-carboxy-4-[[(4S)-4-carboxy-4-[[2-[2-[2-[[2-[2-[2-[[(4S)-4-carboxy-4-[[(4S)-4-carboxy-4-(17-carboxyheptadecanoylamino)butanoyl]amino]butanoyl]amino]ethoxy]ethoxy]acetyl]amino]ethoxy]ethoxy]acetyl]amino]butanoyl]amino]butanoyl]-[Acb2,Leu10,Glu15,Arg20,Glu21,Leu27,Lys28]-Glucagon amide] (H-H[Ac4c]QGTFTSDLSKYLESRRAREFVQWLLK([γGlu-γGlu-AEEA-AEEA-γGlu-γGlu-C18 diacid])T-NH2; N-terminus assumed) | 6 |
